Reference: paper PMC10282898 (Organic & Biomolecular Chemistry, 2023)

Assays:
[1] = test system: A3 enzymes; conditions: cited from earlier work
[2] = molecular target: hCDA (Homo sapiens, UniProt P32320); assay: Quantitative evaluation of hCDA inhibitors; type: biochemical
Sequence of hCDA (P32320 whole entry): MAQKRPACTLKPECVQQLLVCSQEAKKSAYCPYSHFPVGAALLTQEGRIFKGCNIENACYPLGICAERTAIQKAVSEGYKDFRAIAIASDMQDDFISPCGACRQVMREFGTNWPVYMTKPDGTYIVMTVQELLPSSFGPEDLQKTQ

Compound	inhibition of A3 enzymes by free nucleosides [1]	Ki ([2]; hCDA 27 nM, dC substrate, pH 7.4, 25 °C, competitive inhibition assumed) [nM]	Km/Ki ([2]; hCDA, Km of dC over Ki of inhibitor)
O=C1NC(O)CCN1[C@@H]1O[C@H](CO)[C@@H](O)[C@H]1O (stereo partly drawn) [THU, tetrahydrouridine]	did not inhibit		
O=C1NCC=CCN1[C@H]1C[C@H](O)[C@@H](CO)O1 [dDiAzep, 8, 1,3-diazepin-2-one 2′-deoxyriboside]		430 ± 80	512
